These results are taken from ChEMBL document CHEMBL1155382, “Bisleuconothine A, an eburnane-aspidosperma bisindole alkaloid from Leuconotis griffithii” (Bioorg Med Chem Lett, 2010).

Assay [1] deals with HCT-116. Nature of the assay: Inhibition of cell growth in human HCT116 cells. The format is functional, cell-based.
Another assay relates to MCF7. Kind of assay: Inhibition of cell growth in human MCF7 cells. In kind it is functional, cell-based.
The test system of a further assay is A549. Kind of assay: Inhibition of cell growth in human A549 cells. In kind it is functional, cell-based.
The subject of assay [2] is HCT-116. Kind of assay: Cell cycle arrest in human HCT116 cells assessed as accumulation at G1 phase at 20 uM after 24 hrs. In kind it is functional.
The test system of assay [3] is HCT-116. Kind of assay: Cell cycle arrest in human HCT116 cells assessed as accumulation at G1 phase at 10 uM after 24 hrs. In kind it is functional.
The subject of assay [4] is HCT-116. Nature of the assay: Cell cycle arrest in human HCT116 cells assessed as accumulation at G1 phase at 5 uM after 24 hrs. The format is functional.
In the next assay the test system is HL-60. Kind of assay: Inhibition of cell growth in human HL60 cells. The format is functional, cell-based.

As a reminder, the IC50 is the midpoint of a concentration-inhibition curve. As for `CC[C@@]12CCCN3CCc4c(n(c5ccccc45)[C@H](c4ccc(O)c5c4N[C@@H]4CC[C@@]6(CC)CCCN7CC[C@@]54[C@H]76)C1)[C@H]32` [BISLEUCONOTHINE A], the IC50 in the assay with HCT-116 [1] was determined as 5.7 µM; with MCF7, 9.2 µM; with A549, 7 µM; with HL-60, 11 µM. The Activity in the assay with HCT-116 [2] was found to be 79.5%; in the assay on HCT-116 [3], 75.1%; in the assay with HCT-116 [4] it was 72%.
